Source: ChEMBL document CHEMBL6078637, “Cyclic Diguanylate G-Quadruplex Inducer-Quorum Sensing Inhibitor Hybrids as Bifunctional Anti-biofilm and Anti-virulence Agents Against Pseudomonas aeruginosa” (J Med Chem, 2024)
pIC50: −log10 of the molar value. Calls of active or inactive are those of the source. The calls are words filed in the database; no cut-off is given here.

Assays:
Pseudomonas aeruginosa [1] = assay: Antibacterial activity against Pseudomonas aeruginosa PAO1 incubated for 24 hrs by absorbance based assay; assay type: functional
[2] = Toxicity in Caenorhabditis elegans infected with Pseudomonas aeruginosa PAO1 assessed as nematode survival at 2 ug incubated for 48 hrs; conditions: in vivo, at 2 µg
Pseudomonas aeruginosa [3] = assay: Inhibition of beta-galactosidase in Pseudomonas aeruginosa PAO1 harboring mini-ctx-pqsA-lacZ at 10 uM incubated for 6 hrs by ONPG test relative to control
[4] = Hemolytic activity in rabbit erythrocytes assessed as damage in cell membrane integrity at 100 uM incubated for 4 hrs by absorbance based assay; assay type: toxicity, Oryctolagus cuniculus; conditions: erythrocyte
Pseudomonas aeruginosa [5] = assay: Inhibition of swimming motility of Pseudomonas aeruginosa PAO1 at 10 uM incubated overnight relative to control; assay type: functional
Pseudomonas aeruginosa [6] = assay: Inhibition of swarming motility of Pseudomonas aeruginosa PAO1 at 10 uM incubated overnight; assay type: functional, organism-based
[7] = Toxicity in Caenorhabditis elegans infected with Pseudomonas aeruginosa PAO1 assessed as nematode survival at 10 uM incubated for 48 hrs
DNA [8] = assay: Binding affinity to pBR322 DNA (unknown origin) assessed as DNA migration at 50 uM preincubated for 10 mins followed by Topo I addition measured after 1 hr by TO dye based PAGE analysis; assay type: nucleic-acid assay; conditions: time 70.0 min
Pseudomonas aeruginosa [9] = assay: Synergistic inhibition of bacterial virulence of Pseudomonas aeruginosa PAO1 infected in Caenorhabditis elegans upto 10 uM incubated for 36 hrs in presence of tetracycline; assay type: functional, organism-based
Pseudomonas aeruginosa [10] = assay: Antivirulence activity against Pseudomonas aeruginosa PAO1 assessed as reduction in pyocyanin level incubated for 24 hrs by absorbance based assay; assay type: functional, organism-based; conditions: dose <= 10.0 µM
Vero = assay: Cytotoxicity against African green monkey Vero cells at 12.5 uM incubated for 24 hrs by MTT assay; assay type: toxicity, cell-based; conditions: chlorocebus sabaeus
[11] = Toxicity in Caenorhabditis elegans infected with hyper-biofilm phenotype Pseudomonas aeruginosa PAO1 harboring wspF mutant assessed as nematode death at 10 uM incubated for 48 hrs in presence of tetracycline
Pseudomonas aeruginosa [12] = assay: Inhibition of beta-galactosidase in Pseudomonas aeruginosa PAO1 harboring mini-ctx-pqsA-lacZ incubated for 6 hrs by ONPG test; conditions: dose <= 10.0 µM
[13] = Toxicity in Caenorhabditis elegans infected with hyper-biofilm phenotype Pseudomonas aeruginosa PAO1 harboring wspF mutant assessed as nematode death at 10 uM incubated for 48 hrs in presence of TOB
Pseudomonas aeruginosa [14] = assay: Antibiofilm activity against Pseudomonas aeruginosa PAO1 harboring wspF mutant assessed as inhibition rate at 10 uM incubated for 24 hrs by absorbance based assay relative to control; assay type: functional
[15] = Toxicity in Caenorhabditis elegans infected with Pseudomonas aeruginosa PAO1 assessed as reduction in nematode mortality rate at 10 uM incubated for 48 hrs in presence of TOB; parameters: scale not given: the % may be the effect or the level left
[16] = Inhibition of quorum sensing system in Pseudomonas aeruginosa PAO1 harboring mini-ctx-lasB-lacZ at 10 uM measured after 16 hrs by ONPG test relative to control
Pseudomonas aeruginosa [17] = assay: Inhibition of beta-galactosidase in Pseudomonas aeruginosa PAO1 harboring mini-ctx-lasB-lacZ at 10 uM incubated for 6 hrs by ONPG test relative to control
Pseudomonas aeruginosa [18] = assay: Synergistic inhibition of bacterial virulence of hyper-biofilm phenotype Pseudomonas aeruginosa PAO1 harboring wspF mutant upto 10 uM incubated for 36 hrs in presence of TOB; assay type: functional, organism-based
[19] = Toxicity in Caenorhabditis elegans assessed as nematode survival upto 100 uM incubated for 96 hrs
Pseudomonas aeruginosa [20] = assay: Inhibition of swimming motility of Pseudomonas aeruginosa PAO1 incubated overnight; assay type: functional, organism-based; conditions: dose <= 10.0 µM
Pseudomonas aeruginosa [21] = assay: Synergistic inhibition of bacterial virulence of Pseudomonas aeruginosa PAO1 infected in Caenorhabditis elegans upto 10 uM incubated for 36 hrs in presence of TOB; assay type: functional, organism-based
Pseudomonas aeruginosa [22] = assay: Antivirulence activity against Pseudomonas aeruginosa PAO1 assessed as reduction in hemolysin level at 10 uM preincubated for 24 hrs followed by addition of erythrocytes measured after 30 mins by absorbance based analysis relative to control; assay type: functional; parameters: scale not given: the % may be the effect or the level left
Pseudomonas aeruginosa [23] = assay: Inhibition of twitching motility of Pseudomonas aeruginosa PAO1 incubated overnight by crystal voilet staining based analysis; assay type: functional, organism-based; conditions: dose <= 10.0 µM
Pseudomonas aeruginosa [24] = assay: Inhibition of beta-galactosidase in Pseudomonas aeruginosa PAO1 harboring mini-ctx-lasB-lacZ incubated for 6 hrs by ONPG test; conditions: dose <= 10.0 µM
Pseudomonas aeruginosa [25] = assay: Inhibition of swarming motility of Pseudomonas aeruginosa PAO1 incubated overnight; assay type: functional, organism-based; conditions: dose <= 10.0 µM
[26] = Toxicity in Caenorhabditis elegans infected with Pseudomonas aeruginosa PAO1 assessed as nematode survival at 10 uM incubated for 48 hrs in presence of tetracycline
Pseudomonas aeruginosa [27] = assay: Synergistic antibacterial activity against Pseudomonas aeruginosa PAO1 assessed as bacterial growth inhibition at 20 uM incubated for 24 hrs in presence of tetracycline by CFU counting method; assay type: functional, organism-based
Pseudomonas aeruginosa [28] = assay: Antivirulence activity against Pseudomonas aeruginosa PAO1 assessed as reduction in elastase level incubated for 24 hrs by elastin-Congo red staining based analysis; assay type: functional, organism-based; conditions: dose <= 10.0 µM
Pseudomonas aeruginosa [29] = assay: Antivirulence activity against Pseudomonas aeruginosa PAO1 assessed as reduction in elastase level at 10 uM incubated for 24 hrs by elastin-Congo red staining based analysis relative to control; assay type: functional; parameters: scale not given: the % may be the effect or the level left
DNA [30] = assay: Binding affinity to pBR322 DNA (unknown origin) assessed as DNA embedding toxicity at 50 uM preincubated for 10 mins followed by Topo I addition measured after 1 hr by TO dye based PAGE analysis; assay type: nucleic-acid assay; conditions: time 70.0 min
Pseudomonas aeruginosa [31] = assay: Inhibition of beta-galactosidase in Pseudomonas aeruginosa PAO1 harboring mini-ctx-lacZ at 10 uM incubated for 6 hrs by ONPG test relative to control
Pseudomonas aeruginosa [32] = assay: Antivirulence activity against Pseudomonas aeruginosa PAO1 assessed as reduction in rhamnolipid level at 10 uM incubated for 24 hrs by orcinol based analysis; assay type: functional, organism-based
Pseudomonas aeruginosa [33] = assay: Antibiofilm activity against Pseudomonas aeruginosa PAO1 harboring wspF mutant incubated for 24 hrs by absorbance based assay; assay type: functional, organism-based; conditions: for pIC50: PAO1, 24 h
Pseudomonas aeruginosa [34] = assay: Inhibition of twitching motility of Pseudomonas aeruginosa PAO1 at 10 uM incubated overnight by crystal voilet staining based analysis; assay type: functional, organism-based
Pseudomonas aeruginosa [35] = assay: Inhibition of beta-galactosidase in Pseudomonas aeruginosa PAO1 harboring mini-ctx-rhlA-lacZ at 10 uM incubated for 6 hrs by ONPG test relative to control
Pseudomonas aeruginosa [36] = assay: Antivirulence activity against Pseudomonas aeruginosa PAO1 assessed as reduction in rhamnolipid level incubated for 24 hrs by orcinol based analysis; assay type: functional, organism-based; conditions: dose <= 10.0 µM
Pseudomonas aeruginosa [37] = assay: Antibiofilm activity against Pseudomonas aeruginosa PAO1 harboring wspF mutant assessed as inhibition rate at 1.25 uM incubated for 24 hrs by absorbance based assay relative to control; assay type: functional
Pseudomonas aeruginosa [38] = assay: Synergistic inhibition of bacterial virulence of hyper-biofilm phenotype Pseudomonas aeruginosa PAO1 harboring wspF mutant upto 10 uM incubated for 36 hrs in presence of tetracycline; assay type: functional, organism-based
Pseudomonas aeruginosa [39] = assay: Downregulation of rhlA mRNA level in Pseudomonas aeruginosa PAO1 at 10 uM by RT-qPCR analysis; assay type: functional, organism-based
Pseudomonas aeruginosa [40] = assay: Downregulation of lasR mRNA level in Pseudomonas aeruginosa PAO1 at 10 uM by RT-qPCR analysis; assay type: functional, organism-based
Pseudomonas aeruginosa [41] = assay: Downregulation of pqsR mRNA level in Pseudomonas aeruginosa PAO1 at 10 uM by RT-qPCR analysis; assay type: functional, organism-based
Pseudomonas aeruginosa [42] = assay: Antivirulence activity against Pseudomonas aeruginosa PAO1 assessed as reduction in pyocyanin level at 10 uM incubated for 24 hrs by absorbance based assay relative to control; assay type: functional; parameters: scale not given: the % may be the effect or the level left
Pseudomonas aeruginosa [43] = assay: Downregulation of pelA mRNA level in Pseudomonas aeruginosa PAO1 at 10 uM by RT-qPCR analysis; assay type: functional, organism-based
Pseudomonas aeruginosa [44] = assay: Downregulation of lasB mRNA level in Pseudomonas aeruginosa PAO1 at 10 uM by RT-qPCR analysis; assay type: functional, organism-based
Pseudomonas aeruginosa [45] = assay: Downregulation of rhlR mRNA level in Pseudomonas aeruginosa PAO1 at 10 uM by RT-qPCR analysis; assay type: functional, organism-based

Structure (SMILES): CN(C)[C@@H]1C(O)=C(C(N)=O)C(=O)[C@@]2(O)C(O)=C3C(=O)c4c(O)cccc4[C@@](C)(O)[C@H]3C[C@@H]12 [TETRACYCLINE]
- MIC (Pseudomonas aeruginosa [1]): > 128 µM
- Survival [2]: ~ 10%

Structure (SMILES): C[n+]1c(/C=C/c2c[nH]c3ccc(F)cc23)ccc2ccccc21.[I-]
- inhibition (Pseudomonas aeruginosa [3]): 30%
- Activity [4]: Non-toxic
- inhibition at 10 µM (Pseudomonas aeruginosa [5]): 22.4%
- inhibition (Pseudomonas aeruginosa [6]): Active; Inhibitory Effect Was Comparable To Qs Deficient Pao1 Double Mutant Lasi/Rhli
- Activity [7]: Toxic
- Activity (DNA [8]): Not toxic
- Activity (Pseudomonas aeruginosa [9]): Active
- Activity (Pseudomonas aeruginosa [10]): Dose-dependent-effect
- Activity (Vero): Non-toxic
- Activity [11]: Non-toxic
- MIC (Pseudomonas aeruginosa [1]): > 128 µM
- inhibition (Pseudomonas aeruginosa [12]): Dose-dependent-effect
- Activity [13]: Non-toxic
- inhibition at 10 µM (Pseudomonas aeruginosa [14]): ~40%
- Activity [15]: ~ 50%
- inhibition [16]: 40.3%
- inhibition (Pseudomonas aeruginosa [17]): 30%
- Activity (Pseudomonas aeruginosa [18]): Active
- Activity [19]: Non-toxic
- inhibition (Pseudomonas aeruginosa [20]): Dose-dependent-effect
- Activity (Pseudomonas aeruginosa [21]): Active
- Activity (Pseudomonas aeruginosa [22]): 51.3%
- inhibition (Pseudomonas aeruginosa [23]): Dose-dependent-effect
- inhibition (Pseudomonas aeruginosa [24]): Dose-dependent-effect
- inhibition (Pseudomonas aeruginosa [25]): Dose-dependent-effect
- Survival [26]: 86.3%
- Activity (Pseudomonas aeruginosa [27]): Active
- Activity (Pseudomonas aeruginosa [28]): Dose-dependent-effect
- Activity (Pseudomonas aeruginosa [29]): 48.51%
- Activity (DNA [30]): Not toxic
- inhibition (Pseudomonas aeruginosa [31]): 8.03%
- Activity (Pseudomonas aeruginosa [32]): Active; Exhibited Relatively Modest Activity
- inhibition (Pseudomonas aeruginosa [33]): Dose-dependent-effect
- pIC50 (Pseudomonas aeruginosa [33]): 4.63
- inhibition (Pseudomonas aeruginosa [34]): Active; Exhibited Only A Modest Impact
- inhibition (Pseudomonas aeruginosa [35]): 10%
- Activity (Pseudomonas aeruginosa [36]): Dose-dependent-effect
- inhibition at 1.25 µM (Pseudomonas aeruginosa [37]): ~21%
- Activity (Pseudomonas aeruginosa [38]): Active

Structure (SMILES): C[n+]1c(/C=C/c2c[nH]c3ccccc23)ccc2ccccc21.[I-]
- inhibition (Pseudomonas aeruginosa [3]): 30%
- Activity [4]: Non-toxic
- inhibition at 10 µM (Pseudomonas aeruginosa [5]): 29.2%
- inhibition (Pseudomonas aeruginosa [6]): Active; Inhibitory Effect Was Comparable To Qs Deficient Pao1 Double Mutant Lasi/Rhli
- Activity [7]: Toxic
- Activity (DNA [8]): Not toxic
- Activity (Pseudomonas aeruginosa [9]): Active
- Activity (Pseudomonas aeruginosa [10]): Dose-dependent-effect
- Activity (Vero): Non-toxic
- Activity (Pseudomonas aeruginosa [39]): Active
- Activity [11]: Non-toxic
- MIC (Pseudomonas aeruginosa [1]): > 128 µM
- inhibition (Pseudomonas aeruginosa [12]): Dose-dependent-effect
- Activity [13]: Non-toxic
- inhibition at 10 µM (Pseudomonas aeruginosa [14]): ~40%
- Activity [15]: ~ 50%
- inhibition [16]: 44.5%
- inhibition (Pseudomonas aeruginosa [17]): 30%
- Activity (Pseudomonas aeruginosa [18]): Active
- Activity [19]: Non-toxic
- inhibition (Pseudomonas aeruginosa [20]): Dose-dependent-effect
- Activity (Pseudomonas aeruginosa [40]): Active
- Activity (Pseudomonas aeruginosa [21]): Active
- Activity (Pseudomonas aeruginosa [22]): 62.38%
- inhibition (Pseudomonas aeruginosa [23]): Dose-dependent-effect
- inhibition (Pseudomonas aeruginosa [24]): Dose-dependent-effect
- Activity (Pseudomonas aeruginosa [41]): Active
- Activity (Pseudomonas aeruginosa [42]): ~40%
- inhibition (Pseudomonas aeruginosa [25]): Dose-dependent-effect
- Survival [26]: 95%
- Activity (Pseudomonas aeruginosa [27]): Active
- Activity (Pseudomonas aeruginosa [28]): Dose-dependent-effect
- Activity (Pseudomonas aeruginosa [29]): 59.02%
- Activity (Pseudomonas aeruginosa [43]): Active
- Activity (DNA [30]): Not toxic
- inhibition (Pseudomonas aeruginosa [31]): 20.4%
- Activity (Pseudomonas aeruginosa [44]): Active
- Activity (Pseudomonas aeruginosa [32]): Active; Exhibited Relatively Modest Activity
- inhibition (Pseudomonas aeruginosa [33]): Dose-dependent-effect
- pIC50 (Pseudomonas aeruginosa [33]): 4.83
- inhibition (Pseudomonas aeruginosa [34]): Active; Exhibited Only A Modest Impact
- inhibition (Pseudomonas aeruginosa [35]): 10%
- Activity (Pseudomonas aeruginosa [45]): Active
- Activity (Pseudomonas aeruginosa [36]): Dose-dependent-effect
- inhibition at 1.25 µM (Pseudomonas aeruginosa [37]): ~21%
- Activity (Pseudomonas aeruginosa [38]): Active
